According to PubChem BioAssay (NCI):
Several values for one entry are separate records, joined by “and”; a condition that tells them apart may be missing. Equal entries are not always repeated.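 Exposure lasted 48 hours, with cells grown in 96-well plates and compounds tested at five concentrations. Here, GI50 denotes the concentration required for 50% inhibition of growth. TGI: concentration producing complete growth inhibition.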 Square brackets hold non-standard residues; d marks the D form. Peptide text beside a SMILES is read from it. Phe(4-NO2) = N[CH](Cc1ccc([N+](=O)[O-])cc1)C(=O)O

Assays:
Assay in all cases: NCI-60 cell line screen, 48 h
NCI-H460 lung = system: NCI-H460 lung
EKVX NSCLC = system: EKVX NSCLC
SNB-75 CNS = system: SNB-75 CNS
UO-31 renal = system: UO-31 renal
HL-60(TB) leukemia = system: HL-60(TB) leukemia
SK-OV-3 ovarian = system: SK-OV-3 ovarian
RXF 393 renal = system: RXF 393 renal
SN12C renal = system: SN12C renal
HCT-116 colon = system: HCT-116 colon
MDA-MB-231 breast = system: MDA-MB-231 breast
HS 578T breast = system: HS 578T breast

SMILES	TGI (NCI-H460 lung)	TGI (EKVX NSCLC)	TGI (SNB-75 CNS) [µM]	TGI (UO-31 renal) [µM]	TGI (HL-60(TB) leukemia) [µM]	TGI (SK-OV-3 ovarian) [µM]	TGI (RXF 393 renal) [µM]	TGI (SN12C renal)	TGI (HCT-116 colon) [µM]	TGI (MDA-MB-231 breast)	TGI (HS 578T breast) [µM]	GI50 (NCI-H460 lung) [nM]	GI50 (EKVX NSCLC) [nM]	GI50 (UO-31 renal) [nM]
COc1ccc2c(c1)C=C(C(C)(C)C)NS2(=O)=O	> 100 µM	> 100 µM	> 100	> 100	> 100	> 100	> 100	> 100 µM	> 100					
C=C(C)C1CC2=C(O1)C(=O)c1cccc(O)c1C2=O (stereo not given)	3.75 µM	2.52 µM	3.87	2.84		2.86	2.54	2.44 µM		3.64 µM	5.34			
N#Cc1c2ccc([N+](=O)[O-])cc2c(=O)n2c1sc1ccccc12	> 100 µM		> 100	72.7	66.1			> 100 µM	38.8	49.2 µM	> 100			
O=C(N[C@@H](Cc1ccccc1)B(O)O)[C@H](Cc1cccc2ccccc12)NC(=O)N1CCOCC1	0.106 µM and 0.0579 µM	0.923 µM and 3.66 µM	0.0558	0.482			0.00379	0.0226 µM and 0.0268 µM	0.00208	0.00745 µM and 0.0232 µM	0.213	17.2	129	123
CC(=O)OCCCCn1cnc2c(Cl)nc(Nc3ccccc3)nc21	> 100 µM	> 100 µM		> 100	> 100			> 100 µM	> 100	> 100 µM	> 100			
CS(=O)(=O)CCC(N)P(=O)(O)O (stereo not given)	> 100 µM	> 100 µM	> 100	> 100	> 100	> 100		> 100 µM	> 100		> 100			
COC(=O)CCC(NC(=O)C(CCC(=O)OC)NC(=O)C(CCC(=O)OC)NC(=O)C(CCC(=O)OC)NC(=O)C(CCC(=O)OC)NC(=O)C(Cc1ccc([N+](=O)[O-])cc1)NC(=O)C(CCC(=O)OC)NC(=O)C(CCC(=O)OC)NC(=O)C(CCC(=O)OC)NC(=O)C(CCC(=O)OC)NC(=O)C(CCC(=O)OC)NC(C)=O)C(N)=O (stereo not given) (Ac-E(OMe)E(OMe)E(OMe)E(OMe)E(OMe)[Phe(4-NO2)]E(OMe)E(OMe)E(OMe)E(OMe)E(OMe)-NH2; configuration not given here)	> 100 µM	> 100 µM	> 100	> 100		> 100	> 100	> 100 µM	> 100	> 100 µM	> 100			
CCOc1ncnc2ccc(Cl)c(I)c12	> 100 µM	> 100 µM		75.5	> 100	> 100	60.7	> 100 µM	> 100					
C=CCN(c1cc(OC)c2c(c1[N+](=O)[O-])C(C)(SC)C(=O)N2)S(C)(=O)=O (stereo not given)	> 100 µM		> 100	> 100		> 100		> 100 µM	> 100	> 100 µM	> 100			
CC(C)C[C@H](NC(=O)CCc1cccc2ccccc12)B(O)O	19.5 µM	64.2 µM	> 22.6	8.73		> 86.4	2.03	21 µM	2.91	15.2 µM	7.4			
CC(C)(C)OC(=O)N1CCC(NC(=O)NC2CCN(C(=O)OC(C)(C)C)CC2)CC1	> 100 µM	> 100 µM	> 100	> 100	> 100			> 100 µM	> 100	> 100 µM	> 100			
CCOC(OCC)[C@H](N)[C@@H](O)[C@@H](O)[C@H]1COC(C)(C)O1		> 100 µM	> 100	> 100		> 100		> 100 µM	> 100	> 100 µM	> 100			
Nc1ncnc2c1cnn2COCC(O)CO (stereo not given)	> 100 µM	> 100 µM		> 100		> 100	> 100	> 100 µM	> 100	> 100 µM	> 100			
Cn1c(O)c(C=Nc2ccc(Cl)cc2Cl)c(=O)n(C)c1=O	> 100 µM	> 100 µM	> 100	> 100		> 100	> 100	> 100 µM	> 100	> 100 µM	> 100			
O=C1c2cc([N+](=O)[O-])sc2C(=O)c2cc([N+](=O)[O-])sc21	43.8 µM	7.78 µM	26.3	7.68		25.2	15.5	7.12 µM	3.24	5.66 µM	35			
C(#C[C@@]12CCC[C@@H]1N(Cc1ccccc1)CO2)c1ccc2c(c1)OCO2	> 100 µM	> 100 µM	> 100	> 100		> 100	> 100	> 100 µM	> 100	> 100 µM	> 100			

SMILES	TGI (NCI-H460 lung)	TGI (EKVX NSCLC)	TGI (SNB-75 CNS) [µM]	TGI (UO-31 renal) [µM]	TGI (HL-60(TB) leukemia) [µM]	TGI (SK-OV-3 ovarian) [µM]	TGI (RXF 393 renal) [µM]	TGI (SN12C renal)	TGI (HCT-116 colon) [µM]	TGI (MDA-MB-231 breast)	TGI (HS 578T breast) [µM]	GI50 (NCI-H460 lung) [nM]	GI50 (EKVX NSCLC) [nM]	GI50 (UO-31 renal) [nM]
CC(c1ccccc1)C(O)S(=O)(=O)O (stereo not given)	> 100 µM	> 100 µM	> 100	> 100		> 100	> 100	> 100 µM	> 100					
C=COC(=O)N1C2CCCC(Cl)(C(C)=O)C1CC2 (stereo not given)	> 100 µM	> 100 µM	> 100	> 100		> 100		> 100 µM	> 100	> 100 µM	> 100			
CC1(C)CN=C(Nc2ccc(F)c(Cl)c2)S1		> 100 µM	> 100	> 100	> 100	> 100	> 100	> 100 µM	> 100		> 100			
CC1(C)/C(=N\Nc2ccc([N+](=O)[O-])cc2[N+](=O)[O-])C2CCC1C2 (stereo not given)	> 100 µM	> 100 µM	65.8	> 100	> 100	> 100		> 100 µM	> 100		98.6			
CCCCN1CCC(O)(c2cc(C(=O)O)[nH]c2-c2cc(C)no2)C1=O (stereo not given)	> 100 µM	> 100 µM	> 100	> 100		> 100	> 100		> 100	> 100 µM	> 100			
COc1cc(OC)cc(C(=O)Cc2c(C(=O)c3ccccc3)c3ccccc3n2C(=O)c2ccccc2)c1	> 100 µM	> 100 µM	> 100	> 100	> 100	99.8	> 100	> 100 µM	> 100					
O=C(c1cccc2cc(O)ccc12)c1cn(CCN2CCOCC2)c2ccccc12		64.8 µM		71.4	55.5		43.6	> 100 µM	38.9	45.3 µM				
CC1=CC(=O)/C(=C/N2C(=O)CNC2=S)C(=O)O1	> 100 µM	> 100 µM	> 100	> 100	> 100	> 100		> 100 µM	> 100	> 100 µM				
CO/N=C(\C(=O)[N-][n+]1cnn(CC(=O)O)c1)c1csc(N)n1	> 10 µM	> 10 µM	> 10		> 10	> 10		> 10 µM	> 10	> 10 µM				
C/C(=N\Nc1nc2ccccc2o1)c1cc2ccccc2cn1	> 100 µM	1.25 µM	3.7	0.271		8.15	4.87	33.7 µM	15.8	8.75 µM	11.2			
COc1ccc2c(c1)c(=O)c1c(NCCCN(C)C)ccc3ncn2c31	8.03 µM	27 µM	19.8	16.1	25.1	22.1	2.28	18.9 µM	13		29.3			
CCOC(=O)c1csc(-c2nc(CCNC(=O)c3ccccc3)sc2Cl)n1	> 100 µM	> 100 µM	> 100	> 100	> 100	> 100	> 100	> 100 µM	> 100		> 100			
O=C1CN(c2ccccc2)C(=O)CN1CCN1CC(=O)N(c2ccccc2)CC1=O	> 100 µM	> 100 µM	> 100	> 100	> 100	> 100	> 100	> 100 µM	> 100		> 100			
O=C1/C(=C\c2cccc(Oc3ccccc3)c2)SC(c2ccccc2)N1c1cccc(Cl)c1 (stereo not given)	> 100 µM	> 100 µM		> 100		> 100	> 100	> 100 µM	> 100	> 100 µM	> 100			
COc1ccc(NS(=O)(=O)c2ccc(N=C3C=C(Nc4ccc(S(=O)(=O)Nc5ccc(OC)nn5)cc4)C(=O)c4ccccc43)cc2)nn1	31.5 µM	63.1 µM	35.1	37.8	> 100	33.1	32.8	38.6 µM	32					
O=C(NNC(=O)c1c(Cl)c(Cl)c(Cl)c(Cl)c1-c1nc2ccccc2[nH]1)c1ccc(Cl)cc1		> 100 µM	> 100	> 100	> 100	> 100	> 100	> 100 µM	> 100					
